Earlier results on 2 compounds are cited in PMC9069326 (RSC Advances, 2019).

For this data set, the target named is Gal-3 (Homo sapiens, UniProt P17931). The settings on record: cited from earlier work.
Sequence of Gal-3 (P17931 whole entry, species assumed): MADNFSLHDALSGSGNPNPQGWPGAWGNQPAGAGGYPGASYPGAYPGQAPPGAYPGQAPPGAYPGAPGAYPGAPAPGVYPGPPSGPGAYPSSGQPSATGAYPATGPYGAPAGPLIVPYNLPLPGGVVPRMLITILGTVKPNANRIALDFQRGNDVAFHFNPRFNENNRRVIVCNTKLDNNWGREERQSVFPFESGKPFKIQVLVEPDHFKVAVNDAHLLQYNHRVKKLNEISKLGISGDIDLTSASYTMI

A word on the Kd: it is a measure of binding affinity in units of concentration. For the compound Galβ1-4GlcNAc [LacNAc], the dissociation constant Kd is 0.07 mM. For the compound `O=C[C@H](O)[C@@H](O)[C@@H](O)[C@H](O)CO` [Gal, β-Galactose], the Kd is roughly 10 mM.
